Values after ≈ are worked out from the molar mass of the structure shown.
Assays:
K562 = assay: cells; conditions: Homo sapiens, K562, 72 h
Description: Antiproliferative activity against human K562 cells after 72 hrs by Alamar blue assay

HCT-116 = assay: Antiproliferative activity against human HCT116 cells after 72 hrs by Alamar blue assay; type: functional; conditions: HCT-116, 72 h
[1] = Antiproliferative activity against human hTERT-HME1 cells after 72 hrs by Alamar blue assay; type: cell-based
BXPC-3 = assay: Antiproliferative activity against human BxPC3 cells after 72 hrs by Alamar blue assay; type: functional; conditions: BXPC-3, 72 h
NCI-H1299 = assay: Antiproliferative activity against human NCI-H1299 cells after 72 hrs by Alamar blue assay; type: functional; conditions: NCI-H1299, 72 h
[2] = target: T1, Kinesin-like protein KIF11 (Homo sapiens, UniProt P52732)
T1 sequence (P52732 whole entry): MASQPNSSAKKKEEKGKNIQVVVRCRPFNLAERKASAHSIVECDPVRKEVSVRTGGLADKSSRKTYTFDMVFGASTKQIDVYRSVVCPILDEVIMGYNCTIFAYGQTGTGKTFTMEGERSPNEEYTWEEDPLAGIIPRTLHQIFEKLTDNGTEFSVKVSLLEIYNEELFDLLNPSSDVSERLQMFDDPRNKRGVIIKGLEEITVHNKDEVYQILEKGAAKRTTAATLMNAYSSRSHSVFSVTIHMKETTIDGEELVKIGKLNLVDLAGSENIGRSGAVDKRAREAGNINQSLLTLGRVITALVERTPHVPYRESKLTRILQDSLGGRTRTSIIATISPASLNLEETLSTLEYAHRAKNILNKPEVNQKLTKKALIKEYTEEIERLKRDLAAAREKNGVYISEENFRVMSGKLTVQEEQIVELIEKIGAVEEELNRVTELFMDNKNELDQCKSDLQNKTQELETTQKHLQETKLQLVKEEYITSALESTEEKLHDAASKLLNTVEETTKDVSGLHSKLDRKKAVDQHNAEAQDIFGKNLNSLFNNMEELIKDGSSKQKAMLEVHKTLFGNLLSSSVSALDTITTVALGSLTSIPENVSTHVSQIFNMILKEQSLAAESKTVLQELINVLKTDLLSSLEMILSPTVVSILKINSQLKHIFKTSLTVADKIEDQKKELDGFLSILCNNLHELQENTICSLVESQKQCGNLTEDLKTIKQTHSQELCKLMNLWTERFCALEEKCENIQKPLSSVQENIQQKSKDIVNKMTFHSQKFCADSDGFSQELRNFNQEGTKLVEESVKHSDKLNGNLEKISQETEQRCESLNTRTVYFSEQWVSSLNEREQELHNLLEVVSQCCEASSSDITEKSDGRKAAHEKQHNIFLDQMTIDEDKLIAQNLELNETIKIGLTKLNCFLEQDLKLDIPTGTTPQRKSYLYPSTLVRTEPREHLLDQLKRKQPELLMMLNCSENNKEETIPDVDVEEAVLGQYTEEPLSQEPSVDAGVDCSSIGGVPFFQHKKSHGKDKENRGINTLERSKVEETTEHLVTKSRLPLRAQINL

[3] = Half life at pH 1.0 assessed as compound hydrolysis; type: physicochemical; conditions: buffer
[4] = Apparent permeability of the compound by PAMPA method; type: ADME

Description for physchem: Turbidimetric solubility of the compound

Work on `CCCc1cccc(C(SCCN)(c2ccccc2)c2ccccc2)c1` yielded a GI50 (K562) of 1760 nM and a solubility kinetic (physchem) of 3.75 µM (≈ 1.36 µg/mL).

Work on `NCCSC(c1ccccc1)(c1ccccc1)c1ccc(CO)cc1` yielded a GI50 (K562) of 783 nM.

For `CC(=O)c1cccc(C(SCCN)(c2ccccc2)c2ccccc2)c1`, the GI50 (K562) was 706 nM.

Molecule `CC(=O)c1ccc(C(SCCN)(c2ccccc2)c2ccccc2)cc1` has a GI50 (K562) of 705 nM.

`NCCSC(c1ccccc1)(c1ccccc1)c1ccc(CN)cc1` gave a GI50 (K562) of 2590 nM.

`CS(=O)(=O)c1cccc(C(SCCN)(c2ccccc2)c2ccccc2)c1` gave a GI50 (K562) of 2560 nM.

`CC(=O)NCc1ccc(C(SCCN)(c2ccccc2)c2ccccc2)cc1` showed a GI50 (K562) of 2900 nM.

In the case of `Cc1ccc(C(CC[C@H](N)C(=O)O)(c2ccccc2)c2ccccc2)cc1`, the GI50 (K562) is reported as 149 nM, the GI50 (HCT-116) is reported as 115 nM and the GI50 at 72 h [1] is reported as 49 nM. The GI50 (BXPC-3) was 268 nM and the GI50 (NCI-H1299) was 305 nM.

In the case of `NCCSC(c1ccccc1)(c1ccccc1)c1cccc(C(F)(F)F)c1`, the Ki [2] is reported as 353 nM.

Molecule `N#Cc1cccc(C(SCCN)(c2ccccc2)c2ccccc2)c1` has a Ki [2] of 451 nM.

Molecule `NCCCC(c1ccccc1)(c1ccccc1)c1ccccc1` has a GI50 (HCT-116) of 213 nM, a GI50 at 72 h [1] of 572 nM and a GI50 (BXPC-3) of 1220 nM. For the same molecule, the GI50 (NCI-H1299) was 964 nM.

`N[C@@H](CSC(c1ccccc1)(c1ccccc1)c1ccccc1)C(=O)O` [S-TRITYL-L-CYSTEINE] gave a GI50 at 72 h [1] of 361 nM.

Work on `NCCSC(c1ccccc1)(c1ccccc1)c1cccc(F)c1` yielded a Ki [2] of 377 nM.

Work on `CC(=O)NCc1cccc(C(SCCN)(c2ccccc2)c2ccccc2)c1` yielded a GI50 (K562) of 2130 nM.

For `N[C@H](CCC(c1ccccc1)(c1ccccc1)c1ccccc1)C(=O)O`, the GI50 (K562) was 776 nM, the GI50 (HCT-116) was 472 nM and the GI50 at 72 h [1] was 321 nM. It also gave a GI50 (BXPC-3) of 1120 nM and a GI50 (NCI-H1299) of 1320 nM.

`N[C@@H](CCC(c1ccccc1)(c1ccccc1)c1ccccc1)C(=O)O` showed a GI50 (K562) of 2060 nM, a GI50 (HCT-116) of 1600 nM and a GI50 at 72 h [1] of 721 nM. For the same molecule, the GI50 (BXPC-3) was 4860 nM and the GI50 (NCI-H1299) was 4020 nM.

Molecule `NCCSC(c1ccccc1)(c1ccccc1)c1cccc(C(=O)O)c1` has a GI50 (K562) of 2140 nM.

In the case of `CC(C)c1cccc(C(SCCN)(c2ccccc2)c2ccccc2)c1`, the GI50 (K562) is reported as 581 nM.

`Cc1ccc(C(CCC(N)C(=O)O)(c2ccccc2)c2ccccc2)cc1` (racemic) gave a GI50 (HCT-116) of 84 nM, a GI50 at 72 h [1] of 44 nM and a GI50 (BXPC-3) of 151 nM. For the same molecule, the GI50 (NCI-H1299) was 204 nM.

Work on `CNC(=O)c1cccc(C(SCCN)(c2ccccc2)c2ccccc2)c1` yielded a GI50 (K562) of 982 nM.

With `N#Cc1ccc(C(SCCN)(c2ccccc2)c2ccccc2)cc1` the GI50 (K562) was 2180 nM and the Ki [2] was 432 nM.

Molecule `CS(=O)(=O)c1ccc(C(SCCN)(c2ccccc2)c2ccccc2)cc1` has a GI50 (K562) of 2740 nM.

In the case of `NCCNC(c1ccccc1)(c1ccccc1)c1ccccc1`, the Ki [2] is reported as 2660 nM and the t1/2 [3] is reported as 7 h.

`Cc1ccc(C(CCCN)(c2ccccc2)c2ccccc2)cc1` showed a GI50 (HCT-116) of 154 nM, a GI50 at 72 h [1] of 601 nM and a GI50 (BXPC-3) of 1600 nM. For the same molecule, the GI50 (NCI-H1299) was 376 nM.

`NCCSC(c1ccccc1)(c1ccccc1)c1cccc(OC(F)(F)F)c1` gave a GI50 (K562) of 1520 nM.

With `N[C@@H](CSC(c1ccccc1)(c1ccccc1)c1cccc(O)c1)C(=O)O` the GI50 (K562) was 2560 nM, the Papp [4] was “impermeable” and the Ki [2] was 48.8 nM.

Work on `COc1cccc(C(SCCN)(c2ccccc2)c2ccccc2)c1` yielded a Ki [2] of 150 nM.

Reference: ChEMBL document CHEMBL2021885, “Triphenylbutanamines: kinesin spindle protein inhibitors with in vivo antitumor activity” (J Med Chem, 2012)
